One assay has as its system several fungal species. In words: Leaf disc or leaf segment tests, summary over the fungi tested. In kind it is in vivo. To be noted: up to; Tables 4 and 5. The procedure: Leaf disks or leaf segments of various plant species were cut from plants grown in the greenhouse. The cut leaf disks, or segments were placed in multiwell plates (24-well format) onto water agar. The leaf disks were sprayed with a test solution before inoculation with the fungal spores. Compounds to be tested were prepared as DMSO solutions (max. 10 mg/ml) which were diluted to the appropriate concentration with water plus 0.025% Tween® 20 just before spraying. The inoculated leaf disks or segments were incubated under defined conditions (temperature, relative humidity, light, etc.) according to the respective test system. A single evaluation of disease level was carried out by visual evaluation 3-9 days days after inoculation, depending on the pathosystem as indicated below. Percent disease control relative to the untreated check leaf disks or segments was then calculated.

A further assay has as its system Botrytis cinerea. The assay is described as follows: Liquid culture 96-well mixture assay with malonomicin, Botrytis cinerea, 72 hrs. Particulars: line H malonomicin alone, concentrations in Table 8. The assay is classed as cell-based. The procedure: (§1) A stock solution for compound of Formula I(a) was produced in DMSO (max. 10 mg/ml). Malonomicin was produced according to Law et al, 2018 (Nature Catalys is |VOL 1|DECEMBER 2018|977-984). A stock solution of malonomicin was produced in water plus 0.025% Tween® 20.
(§2) Assays to test efficacy of mixtures of the lipopeptide compound of Formula I(a) in combination with malonomicin on the control of fungal pathogens in a liquid culture assay were designed for a 96well plate as outlined in table 1:
(§3) The 96 well plate design allows to compare disease control of the mixture with disease control of the respective single compound at the same rate.
(§4) A master plate with 10× concentrated solution of the compound stock solutions diluted in water plus 0.025% Tween® 20 was prepared. The concentration of DMSO (from the stock of compound of Formula (a)) and Tween® 20 was kept constant in all cells of the master plate. 10 μl was transferred from the master plate to a 96well test plate. The nutrient broth containing the fungal spores/mycelia fragments was then added to the test plate to give an end concentration of 1× for the tested compounds (as outlined in Table 8). The test plates were incubated in the dark at 24 °C and 96% rh. The inhibition of fungal growth was determined photometrically after ca 3 days, and percent fungal growth reduction relative to the untreated check was calculated.
Botrytis cinerea (EPPO Code: BOTRCI)
Conidia of the fungus from cryogenic storage were directly mixed into nutrient broth (Vogel's minimal media).

For a further assay, the system named is Microdochium nivale. In words: Liquid culture 96-well mixture assay with malonomicin, Microdochium nivale, 72 hrs. The assay is classed as cell-based. Particulars: read-out: control of fungal growth (% reduction). The procedure:
as §1, §2, §3, §4
Microdochium nivale (EPPO Code: MONGNI)
(§5) Conidia of the fungus from cryogenic storage were directly mixed into nutrient broth (PDB: potato dextrose broth).

Another assay relates to Fusarium culmorum. In words: Liquid culture 96-well mixture assay with malonomicin, Fusarium culmorum, 72 hrs. In kind it is cell-based. Particulars: read-out: control of fungal growth (% reduction). The procedure: as §1, §2, §3, §4
Fusarium culmorum (EPPO Code: FUSACU)
as §5

The subject of the next assay is Puccinia recondita. The assay is described as follows: Leaf disc mixture assay with malonomicin, Puccinia recondita, preventive spray timing, 8 dpi. The assay is classed as in vivo, Puccinia recondita on wheat (cultivar Kanzler). To be noted: compound of Formula I(a) lines 1-A to 2-D = 200, 100, 50, 25, 12.5, 6.25, 3.13, 0 ppm. The protocol: A stock solution for the lipopeptide compound of Formula I(a) was produced in DMSO (max. 10 mg/ml). Malonomicin was produced according to Law et al, 2018 (Nature Catalys is |VOL 1|DECEMBER 2018|977-984). A stock solution of malonomicin was produced in water plus 0.025% Tween®20.
Assays to test efficacy of mixtures of compound of Formula I(a) in combination with malonomicin on the control of fungal pathogens in a leaf disc assay were designed for two 24well plates.
Table 22 and Table 23. Outline of 24well testplate (1) and testplate (2) including concentration of compounds sprayed per well. The upper number in the cell indicates compound of Formula I(a) concentration (ppm), the lower number malonomicin concentration (ppm). Column (1) holds a dilution series of compound of Formula I(a), row (2-D) hold a dilution series of malonomicin. Well 2-D-(1) represents an untreated check. This design was applied for tests including Puccinia recondita (EPPO code: PUCCRE) with preventive and curative spray timing.
A first set of master plates with 1× concentrated spray solution of the lipopeptide compound of Formula I(a) stock diluted in water with concentrations according to table 22, table 23, table 25 or table 26, respectively, was prepared. Each well contained 2% DMSO and 0.025% Tween20. Accordingly, a second set of master plates with 1× concentrated malonomicin stock diluted in water was prepared. Each well of the second set contained 0.025% Tween20. Leaf segments placed on agar in 24well plates were sprayed with 8 μl of solution from the master plate containing the lipopeptide compound of Formula I(a) and the leaf segments were let to dry, followed 2 hours later by 8 μl of solution from the master plate containing malonomicin. After second sprays had dried, leaf segments were infected with fungal spores to obtain a preventive application timing. Alternatively, leaf segments infected one day before spray of the compounds were used, resulting in a curative spray timing. In addition, several plates were produced where leaf segments were sprayed 2× in absence of test compound (with only DMSO and Tween20), representing the untreated check samples. For each leaf segment percent leaf coverage of disease symptoms was assessed. Percent leaf coverage reduction relative to the untreated check was calculated. Efficacy of the mixtures was tested in duplicate and on different fungal species. Reported efficacy values are the average of two replicate results.
Puccinia recondita (EPPO Code: PUCCRE) with Preventive Spray Timing.
Wheat (cultivar Kanzler) leaf segments are placed on agar in multiwell plates (24-well format) and sprayed with test solutions (8 ul per well). After drying, the leaf disks are inoculated with a spore suspension of the fungus. After appropriate incubation the activity of a compound is assessed 8 dpi (days after inoculation) as preventive fungicidal activity.

Numbered stars: 1 amine (or outer) side, 2 acyl side, 3 side chain; on linkers, the order of the positions; unused ones are H or OH. Bridge positions count the residues as written; N and C are the ends. Square brackets hold non-standard residues; d marks the D form. Peptide text beside a SMILES is read from it. * marks the point of attachment. Tridecanoyl(12-Me) = CC(C)CCCCCCCCCCC(=O)*; X1 = NC(=O)CC(O)C(N[*:1])C(=O)[*:2]; NMeF = CN[CH](Cc1ccccc1)C(=O)O; NMeN = CN[CH](CC(N)=O)C(=O)O; X2 = CCC(C)CCCCCCCCCCC(=O)*

As to `CCC(C)CCCCCCCCCCC(=O)NC1C(=O)NC(CC(=O)O)C(=O)NC(C(O)CC(N)=O)C(=O)NC(CO)C(=O)N(C)C(CC(N)=O)C(=O)N(C)C(Cc2ccccc2)C(=O)NC(CCC(N)=O)C(=O)NC(CCC(=O)O)C(=O)OC1C` (stereo not drawn) [Formula I(b)] (X2-TD[X1]S[NMeN][NMeF]QE; ester 1-C; configuration not given here), in the assay with several fungal species, the “reduction of fungal growth” value is “up to 95%”.
With `NC[C@@H]1NC(=O)C(C(=O)CC(NC(=O)[C@@H](N)CO)(C(=O)O)C(=O)O)=C1O` [malonomicin, {[(2S)-2-amino-3-hydroxypropanoyl]amino}{2-[(5S)-5-(aminomethyl)-4-hydroxy-2-oxo-2,5-dihydro-1H-pyrrol-3-yl]-2-oxoethyl}malonic acid], the “control of fungal growth (% reduction of growth in the test well as compared to untreated check)” value is reported as 70% in the assay on Botrytis cinerea (plate column (2), highest malonomicin concentration, lines A-G with compound of Formula I(a) dilution series); 70% in the assay on Botrytis cinerea (plate column (3) of malonomicin dilution series, lines A-G with compound of Formula I(a)); 70% with Botrytis cinerea (plate column (4) of malonomicin dilution series, lines A-G with compound of Formula I(a)); 70% with Botrytis cinerea (plate column (5) of malonomicin dilution series, lines A-G with compound of Formula I(a)); 70% with Botrytis cinerea (plate column (6) of malonomicin dilution series, lines A-G with compound of Formula I(a)); 20% with Botrytis cinerea (plate column (7) of malonomicin dilution series, lines A-G with compound of Formula I(a)). For the same compound, the “control of fungal growth (% reduction of growth in the test well as compared to untreated check)” value in the assay with Botrytis cinerea (plate column (8) of malonomicin dilution series, lines A-G with compound of Formula I(a)) is on record as 0%; in the assay on Botrytis cinerea (plate column (9) of malonomicin dilution series, lines A-G with compound of Formula I(a)), 0%; in the assay on Botrytis cinerea (plate column (10) of malonomicin dilution series, lines A-G with compound of Formula I(a)), 0%; with Botrytis cinerea (plate column (11), lowest malonomicin concentration, lines A-G with compound of Formula I(a)), 0%. Moreover, the figures for the inhibition of growth at 1 ppm in the assay with Microdochium nivale (malonomicin 1.00 ppm) and in the assay with Fusarium culmorum (malonomicin 1.00 ppm) were 20% and 0%, respectively. Moreover, the values for the inhibition of growth at 3 ppm in the assay on Microdochium nivale (malonomicin 3.00 ppm) and with Fusarium culmorum (malonomicin 3.00 ppm) were 20% and 0%, respectively. For the same compound, the inhibition of growth at 7.81 ppm in the assay with Microdochium nivale (malonomicin 7.81 ppm) was 20%; in the assay on Fusarium culmorum (malonomicin 7.81 ppm) it was 0%. Moreover, the inhibition of growth at 15.63 ppm in the assay on Microdochium nivale (malonomicin 15.63 ppm) is 20%; with Fusarium culmorum (malonomicin 15.63 ppm), 0%. Moreover, the values for the inhibition of growth at 31.25 ppm in the assay on Microdochium nivale (malonomicin 31.25 ppm) and in the assay with Fusarium culmorum (malonomicin 31.25 ppm) were 20% and 0%, respectively. The figures for the inhibition of growth at 62.5 ppm in the assay on Microdochium nivale (malonomicin 62.5 ppm) and in the assay on Fusarium culmorum (malonomicin 62.5 ppm) were 50% and 0%, respectively. In addition, the inhibition of growth at 125 ppm in the assay on Microdochium nivale (malonomicin 125 ppm) is 90%; in the assay on Fusarium culmorum (malonomicin 125 ppm), 20%. For the same compound, the inhibition of growth at 250 ppm in the assay on Microdochium nivale (malonomicin 250 ppm) stood at 100%; in the assay with Fusarium culmorum (malonomicin 250 ppm) it was 20%. The inhibition of growth at 500 ppm in the assay with Microdochium nivale (malonomicin 500 ppm) came to 100%; in the assay with Fusarium culmorum (malonomicin 500 ppm), 20%. Also, the inhibition of growth at 1000 ppm was 100% in the assay on Microdochium nivale (malonomicin 1000 ppm) and 20% with Fusarium culmorum (malonomicin 1000 ppm). The “control of fungal growth (% reduction of symtoms on the leaf segment as compared to untreated check)” value in the assay on Puccinia recondita (column (2): malonomicin 200 ppm) was determined as 100%; in the assay on Puccinia recondita (column (3): malonomicin 20 ppm) it was 100%; in the assay with Puccinia recondita (column (4): malonomicin 6.67 ppm), 80%; in the assay with Puccinia recondita (column (5): malonomicin 2.22 ppm), 10%; in the assay on Puccinia recondita (column (6): malonomicin 0.74 ppm), 0%.
Turning to `CC(C)CCCCCCCCCCC(=O)NC1C(=O)NC(CC(=O)O)C(=O)NC(C(O)CC(N)=O)C(=O)NC(CO)C(=O)N(C)C(CC(N)=O)C(=O)N(C)C(Cc2ccccc2)C(=O)NC(CCC(N)=O)C(=O)NC(CCC(=O)O)C(=O)OC1C` (stereo not drawn) [Formula I(a)] ({Tridecanoyl(12-Me)}-TD[X1]S[NMeN][NMeF]QE; ester 1-C; configuration not given here), the “reduction of fungal growth” value in the assay on several fungal species was “up to 95%”. Further, the inhibition of growth at 1.56 µg/mL in the assay with Microdochium nivale (I(a) 1.56 ppm) and in the assay with Fusarium culmorum (I(a) 1.56 ppm) was 0% throughout. Further, the inhibition of growth at 3.125 µg/mL in the assay on Microdochium nivale (I(a) 3.125 ppm) and in the assay on Fusarium culmorum (I(a) 3.125 ppm) was 0% throughout. For the same compound, the inhibition of growth at 6.25 µg/mL in the assay on Microdochium nivale (I(a) 6.25 ppm) and with Fusarium culmorum (I(a) 6.25 ppm) was 0% in each case. In addition, the inhibition of growth at 12.5 µg/mL in the assay with Microdochium nivale (I(a) 12.5 ppm) and in the assay on Fusarium culmorum (I(a) 12.5 ppm) was 0% each time. Further, the inhibition of growth at 25 µg/mL with Microdochium nivale (I(a) 25 ppm) and with Fusarium culmorum (I(a) 25 ppm) was 0% each time. Besides, the inhibition of growth at 50 µg/mL in the assay with Microdochium nivale (I(a) 50 ppm) and with Fusarium culmorum (I(a) 50 ppm) was 0% each time. Moreover, the inhibition of growth at 100 µg/mL in the assay with Microdochium nivale (I(a) 100 ppm) and with Fusarium culmorum (I(a) 100 ppm) was 0% each time.
